One test concerns the target T1, CyclinE1/CDK2 (Homo sapiens, UniProt P24864).
T1 construct: purchased Eurofins, discovery 14-475
Put plainly: Fluorescence Polarization (FP) competitive binding assay, Cyclin E1/Cdk2.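 Further: readings taken after two-hour equilibration at room temperature in HEPES buffer with NaCl, DTT, NP-40 and BSA, IC50 fitted from eight-concentration serial dilution series.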 The following applies: 10 nM Cyclin E1/Cdk2, 2 nM FAM probe; average of 2-3 independent experiments; read-out: Cyclin E FP IC50.

For a further test, the target named is T2, CyclinB1/CDK1 (Homo sapiens, UniProt P14635).
T2 construct: purchased Eurofins, discovery 14-450
Briefly: Fluorescence Polarization (FP) competitive binding assay, Cyclin B1/Cdk1.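 Further: fluorescence polarization read after equilibration at room temperature, with IC50 taken from serially diluted dose-response curves.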 The following applies: 10 nM Cyclin B1/Cdk1, 2 nM FAM probe; average of 2-3 independent experiments; read-out: Cyclin B FP IC50. (In general: In fluorescence polarisation assays a small probe gives low polarisation when free and higher when bound to something large.)

For a further test, the system named is OVCAR3 cells. Briefly: MTT proliferation assay, OVCAR3.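 Further: compound given as an 8- or 10-point series, one day after plating, with exposure covering roughly 3-4 cell doublings.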 The class given is cell-based. The following applies: 5 days compound exposure, 1:3 serial dilution starting at 10 μM.
The test system of the next test is NCI-H1048 cells. Briefly: MTT proliferation assay, NCI-H1048.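 Further: Dose-response in 96-well plates over 8 or 10 concentration points, with exposure spanning 3-4 cell doublings.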 It counts as cell-based. The note with it: 5 days compound exposure, 1:3 serial dilution starting at 10 μM.
In another test the target is T3, CyclinA2/CDK2 (Homo sapiens, UniProt P20248).
T3 construct: purchased CRELUX Protein Services
Put plainly: Fluorescence Polarization (FP) competitive binding assay, Cyclin A2/Cdk2.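 Further: plates equilibrated two hours at room temperature before polarization reading, IC50 fitted from eight-concentration compound titration curves.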 The following applies: 8 nM Cyclin A2/Cdk2, 2 nM FAM probe; average of 2-3 independent experiments; read-out: Cyclin A FP IC50.

The results in this text go back to patent US20240408169A1 (priority 2023, published 2024).

*1 amine or outer side, *2 acyl side, *3 side chain or, on linkers, in order; H or OH if unused. Where a SMILES comes first, the peptide text is derived from it. Bridges are numbered along the chain shown (N, C = ends). [ ]: non-standard residue; d: D form. The star is where a group is joined. X127 = CN([C@@H](Cc1cc(F)ccc1-c1cnn(S(=O)(=O)C2CC2)c1)C(=O)[*:2])[*:1]; X142 = CN([C@@H](Cc1cc(Cl)ccc1C1=CCN(S(C)(=O)=O)CC1)C(=O)[*:2])[*:1]; NMehhhLys(Me) = CN([C@@H](CCCCCCCN(C)[*:3])C(=O)[*:2])[*:1]; X176 = CN([C@@H](Cc1cc(F)ccc1-c1cccnc1)C(=O)[*:2])[*:1]; X204 = CN([C@@H](Cc1cc(F)ccc1-c1ccnnc1)C(=O)[*:2])[*:1]; NMe(hhhLys) = CN([C@@H](CCCCCCCN[*:3])C(=O)[*:2])[*:1]; Oxane2carbonyl(2R-CF3) = O=C([C@@]1(C(F)(F)F)CCCCO1)*; cBuCO(3,3-F2-1-CF3) = O=C(C1(C(F)(F)F)CC(F)(F)C1)*; Pro(trans-4-F) = O=C(O)[C@@H]1C[C@@H](F)CN1; Gly(cPr) = N[C@H](C(=O)O)C1CC1

For the compound `CC(C)C[C@@H]1NC(=O)[C@@H](N(C)C(=O)[C@@H](NC(=O)[C@@H]2C[C@@H](F)CN2C(=O)C2(C(F)(F)F)CC(F)(F)C2)C2CC2)CCCCCCCNC(=O)[C@H](Cc2cc(F)ccc2-c2cccnc2)N(C)C1=O` [Example 280] ({cBuCO(3,3-F2-1-CF3)}-[Pro(trans-4-F)][Gly(cPr)][NMe(hhhLys)]L[X176]; lactam 3-C), the IC50 at CyclinE1/CDK2 stood at 320 nM; on CyclinB1/CDK1, 20 nM; at CyclinA2/CDK2 it was 40 nM. For the same compound, the concentration for 50% growth inhibition (GI50) with OVCAR3 cells and in the test with NCI-H1048 cells was 10 nM each time.

Consider `CC(C)C[C@@H]1NC(=O)[C@@H](N(C)C(=O)[C@@H](NC(=O)[C@@H]2C[C@@H](F)CN2C(=O)C2(C(F)(F)F)CC(F)(F)C2)C2CC2)CCCCCCCNC(=O)[C@H](Cc2cc(F)ccc2-c2cnn(S(=O)(=O)C3CC3)c2)N(C)C1=O` [Example 281] ({cBuCO(3,3-F2-1-CF3)}-[Pro(trans-4-F)][Gly(cPr)][NMe(hhhLys)]L[X127]; lactam 3-C), for which the IC50 is 530 nM at CyclinE1/CDK2, 20 nM on CyclinB1/CDK1 and 40 nM at CyclinA2/CDK2. Besides, the GI50 in the test on OVCAR3 cells worked out at 20 nM; with NCI-H1048 cells, 10 nM.

`CC(C)C[C@@H]1NC(=O)[C@@H](N(C)C(=O)[C@@H](NC(=O)[C@@H]2C[C@@H](F)CN2C(=O)[C@@]2(C(F)(F)F)CCCCO2)C2CC2)CCCCCCCN(C)C(=O)[C@H](Cc2cc(F)ccc2-c2cnn(S(=O)(=O)C3CC3)c2)N(C)C1=O` [Example 282] ({Oxane2carbonyl(2R-CF3)}-[Pro(trans-4-F)][Gly(cPr)][NMehhhLys(Me)]L[X127]; lactam 3-C): the concentration for half-maximal inhibition (IC50) at CyclinE1/CDK2 was 100 nM; at CyclinB1/CDK1 it was 20 nM; at CyclinA2/CDK2 it was 30 nM. Moreover, the GI50 with OVCAR3 cells and in the test with NCI-H1048 cells was 10 nM each time.

Turning to `CC(C)C[C@@H]1NC(=O)[C@@H](N(C)C(=O)[C@@H](NC(=O)[C@@H]2C[C@@H](F)CN2C(=O)C2(C(F)(F)F)CC(F)(F)C2)C2CC2)CCCCCCCNC(=O)[C@H](Cc2cc(Cl)ccc2C2=CCN(S(C)(=O)=O)CC2)N(C)C1=O` [Example 284] ({cBuCO(3,3-F2-1-CF3)}-[Pro(trans-4-F)][Gly(cPr)][NMe(hhhLys)]L[X142]; lactam 3-C), the IC50 at CyclinE1/CDK2 is 1740 nM; on CyclinB1/CDK1, 20 nM; on CyclinA2/CDK2 it was 20 nM. Also, the 50% growth inhibitory concentration (GI50) in the test on OVCAR3 cells and in the test on NCI-H1048 cells was 10 nM throughout.

For the compound `CC(C)C[C@@H]1NC(=O)[C@@H](N(C)C(=O)[C@@H](NC(=O)[C@@H]2C[C@@H](F)CN2C(=O)C2(C(F)(F)F)CC(F)(F)C2)C2CC2)CCCC=CCCNC(=O)[C@H](Cc2cc(Cl)ccc2-c2cnn(C)c2)N(C)C1=O` [Example 285], the IC50 at CyclinE1/CDK2 came to 1700 nM; on CyclinB1/CDK1, 20 nM; on CyclinA2/CDK2 it was 60 nM. Moreover, the GI50 in the test with OVCAR3 cells was 30 nM; in the test on NCI-H1048 cells it was 50 nM.

In the case of `CC(C)C[C@@H]1NC(=O)[C@@H](N(C)C(=O)[C@@H](NC(=O)[C@@H]2C[C@@H](F)CN2C(=O)C2(C(F)(F)F)CC(F)(F)C2)C2CC2)CCCC=CCCNC(=O)[C@H](Cc2cc(Cl)ccc2-c2cnn(C3CC3)c2)N(C)C1=O` [Example 287], the IC50 on CyclinE1/CDK2 worked out at 1940 nM; on CyclinB1/CDK1, 20 nM; at CyclinA2/CDK2 it was 60 nM. The GI50 in the test on OVCAR3 cells and with NCI-H1048 cells was 40 nM in each case.

As for `CC(C)C[C@@H]1NC(=O)[C@@H](N(C)C(=O)[C@@H](NC(=O)[C@@H]2C[C@@H](F)CN2C(=O)C2(C(F)(F)F)CC(F)(F)C2)C2CC2)CCCCCCCNC(=O)[C@H](Cc2cc(F)ccc2-c2ccnnc2)N(C)C1=O` [Example 290] ({cBuCO(3,3-F2-1-CF3)}-[Pro(trans-4-F)][Gly(cPr)][NMe(hhhLys)]L[X204]; lactam 3-C), the half-maximal inhibitory concentration (IC50) on CyclinE1/CDK2 turned out to be 1790 nM; on CyclinB1/CDK1, 20 nM; at CyclinA2/CDK2, 120 nM. Further, the 50% growth inhibitory concentration (GI50) worked out at 150 nM in the test on OVCAR3 cells and 80 nM in the test on NCI-H1048 cells.

A word on the IC50: it is the midpoint of a concentration-inhibition curve. As usually defined, the GI50 is the concentration giving 50% growth inhibition. A high value points to less potent growth inhibition.
